Assay results published in patent publication US20220142967A1, “Methods and Compositions for the Treatment of Multiple Sclerosis” (SYMBIONYX PHARMACEUTICALS INC, priority 2018, published 2022).
Structures can show the parent of a compound that is named as a salt.

Columns and labels:
[1] = system: cultured astrocytes; assay: RNA-seq of cultured astrocytes compared with MS patient white matter astrocytes (GSE83670); assay type: cell-based, human; conditions: cultured astrocytes vs. LCM-dissected MS patient astrocytes
Method: Previously, Waller et al. 2016 (J Neuroimmunol 299:139-146) used laser capture microdissection (LCM) to isolate astrocytes from normal appearing white matter in MS patients and CTL subjects (GEO dataset GSE83670; PMID: 27125112).
cDNA sequencing was performed by the University of Michigan sequencing core facility (50 cycle single end Illumina HiSeq 2000). The FASTX-Toolkit was used to filter reads by removing low quality sequences and initial quality assessments were performed using FastQC. Quality-filtered reads were mapped to the human genome (hg38/GRCh38, UCSC) using tophat2 with default settings, except multi-mapping of reads to multiple genome locations was disallowed (settings: -g 1 —no-coverage-search). The hg38/GRCh38 genome is the most recent release available from UCSC. HTSeq was used to tabulate the number of reads mapping to each genome feature and Cufflinks was used to calculate FPKM estimates and associated confidence intervals. RSeQC was used to assess quality of mapping and calculate the percentage of mapped reads. The negative binomial model (edgeR) was used to evaluate differential expression, with read counts normalized using the weighted trimmed mean of M-values method, and dispersions estimated using the Cox-Reid (CR)-adjusted likelihood approach. Differential expression analyses were performed using genes with detectable expression in at least 1 of 4 samples involved in a given comparison. A gene was considered to have detectable expression in a sample if the count per million mapped reads (cpm) estimate was greater than 0.20 and if the lower bound of the FPKM 95% confidence interval was greater than zero.
FIG. 3 presents in scatterplot and histogram format the results of the study on the astrocytes. Scatterplots (A) and (D) compare fold change (FC) estimates in DMF-treated (A) and IDMF-treated (D) astrocytes to LCM-dissected astrocytes in MS patients and healthy controls (CTLs). Each point represents a protein-coding gene and the light colored ellipses outline the 90% of genes closest to the bivariate mean based upon the Mahalanobis distance. The Spearman rank correlation coefficient estimate is shown (upper-left). The proportion of genes within each quadrant is indicated in the upper margin (P<0.05, Fisher's exact test), wherein the quadrants are defined by a vertical and horizontal line through the “1” in each axis with the proportion corresponding, left to right to the upper left, the upper right, the lower right and lower left quadrants, respectively. Gene set overlap is presented in (B), (C), (E) and (F) wherein genes within each set were altered with a P<0.05 threshold. P-values from the test of overlap significance are shown (bottom margin, Fisher's exact test). […]

[2] = target: T1, carboxylesterase 2 (CES2) (Homo sapiens, UniProt O00748); assay: Carboxylesterase hydrolysis IDMF v DMF; assay type: in vitro ADME; conditions: for remaining parent compound: 1 mg/ml CES2, 37° C., pH 7.4
T1 sequence (O00748 27-559): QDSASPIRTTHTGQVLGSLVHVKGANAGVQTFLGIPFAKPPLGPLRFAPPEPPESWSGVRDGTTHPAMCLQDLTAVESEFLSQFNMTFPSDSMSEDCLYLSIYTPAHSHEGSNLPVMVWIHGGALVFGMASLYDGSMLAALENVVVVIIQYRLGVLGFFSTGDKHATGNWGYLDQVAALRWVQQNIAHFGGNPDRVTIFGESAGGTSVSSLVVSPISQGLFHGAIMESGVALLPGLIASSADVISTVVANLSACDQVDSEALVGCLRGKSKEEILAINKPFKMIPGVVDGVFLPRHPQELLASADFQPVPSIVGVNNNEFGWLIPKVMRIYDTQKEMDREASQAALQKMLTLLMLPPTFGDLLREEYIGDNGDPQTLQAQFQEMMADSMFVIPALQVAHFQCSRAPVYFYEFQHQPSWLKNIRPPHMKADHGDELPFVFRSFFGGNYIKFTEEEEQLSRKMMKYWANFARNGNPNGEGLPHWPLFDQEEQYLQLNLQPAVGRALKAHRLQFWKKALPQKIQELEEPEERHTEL
Method: IDMF and DMF were subjected to carboxylesterase hydrolysis. […] 1 mg/ml carboxylesterase 2 (CES2) was added to each solution and the solutions incubated at 37° C. for the time periods set forth in Table 5. […] Isosorbide was quantified using CAD. Mobile phase used for the study: 0.1% Formic acid in water; B: Methanol. Column: Luna C18 4.6 mm×100 mm, 5 u (Phenomenex). Flow rate: 1.0 ml/min.

[3] = system: human fetal astrocytes; assay: A1 v A2 marker activation, RNA-seq of H2O2-stimulated astrocytes; assay type: cell-based; conditions: 2.5 μM, 24 hrs, H2O2 (50 μM) stimulated
Method: The treated cells were stimulated with H2O2 (50 μM) for 20 min and the RNA extracted 1 day later and sequenced using the Illumina HiSeq 2000 with an average of 39.3 million reads per sample. Reads were mapped to the GHch38/hg38 genome. 13,968 protein-coding genes had detectable expression on average among the 6 samples. Differentially expressed genes (DEGs) were identified using negative binomial models with FDR threshold of <0.10 and fold change (FC) criteria (FC>1.30 or FC<0.77). Gene set enrichment testing was performed using public database annotations. Motif enrichment with respect to DEG up-stream regions was characterized using semiparametric generalized additive logistics models. The overlap between the identified DEGs and MS-associated genes, i.e., genes from MS patients and genes linked to inflammatory (A1) and ischemic (A2) astrogliosis.

[4] = system: patients with relapsing remitting MS (RRMS); conditions: cited from earlier work
[5] = system: MS; conditions: MS patients, oral therapy; cited from earlier work
[6] = system: patients with Relapsing-Remitting Multiple Sclerosis; conditions: cited from earlier work
[7] = in vivo; cited from earlier work
[8] = target: T1, carboxylesterase 2 (CES2); assay: Carboxylesterase hydrolysis IDMF v DRF; assay type: in vitro ADME; conditions: 20 μl of 1 mg/ml CES2, 37° C., pH 7.4
Method: 20 μl of 1 mg/ml carboxylesterase 2 (CES2) was added to each solution and the solutions incubated at 37° C. for the time periods set forth in Table 5. […] Although tolerable for normal patients, HES is undesirable and detrimental for those individuals have kidney and/or liver issues

[9] = system: human fetal astrocytes derived from cerebral cortex; assay: Transcriptome analysis of astrocyte cultures treated with MMF, DRF, IDMF; assay type: cell-based; conditions: 2.5 μM, 24 hours
Method: (§1) Experiments were performed using human fetal astrocytes derived from cerebral cortex (cat. no. 882A-05f; Cell Applications, Sant Diego, Calif.). Cells were grown to subconfluence in human astrocyte growth medium (cat. no. 820-500, Cell Applications). […] Test materials were added to subconfluent cultures at a concentration of 2.5 μM and cells were incubated for 24 hours.
(§2) RNA was extracted following the incubation period using the RNAeasy Mini Plus kit (Qiagen, Hilden, Germany) and robotic Qiacube Connect station (Qiagen). Samples were shipped on dry ice to the Thermo Fisher Microarray Research Services Laboratory (Santa Clara, Calif.) for transcriptome analysis. RNA quality analysis was performed upon sample receipt using the NanoDrop Lite (Thermo Fisher Scientific, Waltham, Mass.). All samples had 260/280 nm absorbance ratios higher than 1.90, consistent with high-purity RNA.
In follow-up to the study of Example, 1 above, genes associated with multiple sclerosis were identified based upon seven established database sources: (1) the NHGRI-EBI genome-wide association (GWA) study catalogue, (2) the Disease Ontology (DO) database, (3) the DisGeNET (curated) database, (4) the DisGeNET (BeFree), (5) MalaCards, (6) the Medical Subject Heading (MESH) database and the KEGG Database. The impact on gene expression of IDMF, MMF and DRF on the key overlapping MS-associated genes was assessed.
The specific data for four of the key NFR2 target genes associated with antioxidant and anti-inflammatory effects is presented in FIGS. 7(A) thru 7(D).
Both TNFAIP3 and NFKBIA encode inhibitory proteins that suppress the NF-KB pathway. Specifically, TNFAIP3 encodes a deubiquitinating enzyme previously linked to MS by genetic association studies: a TNFAIP3 protein abundance is increased in white matter and cortical lesion astrocytes from MS patient brains. Similarly, NFKBIA (IκBα) encodes an NF-KB inhibitor for which promoter polymorphisms have been associated with MS and abundance of this protein is prominent in macrophage nuclei of MS plaques undergoing active demyelination. ICAM1 encodes an endothelial adhesion molecule that promotes leucocyte extravasation and is associated with the initiation and progression of inflammation as well as the targeting of inflammation in the central nervous system (CNS). FIGS. 9(A), 9(B) and 9(C) show the specific data for these three genes.
Genetic variants of IFR has been associated with MS and some MS treatments such as glatiramer acetate block cytokine-stimulated IRF1 up-regulation. An assessment was undertaken to assess the relative impact of fumarate esters, namely MMF, DRF and IDMF on IFR motif enrichment.

[10] = system: human fetal astrocytes derived from cerebral cortex; assay: Comparative RT-PCR evaluation of selected genes in astrocytes; assay type: cell-based
Method: as §1, §2
The expression of selected genes was further evaluated using RT-PCR. cDNA was prepared using the AzuraQuant cDNA kit (Azura Genomics, Raynham, Mass.) and PCR reactions were performed using the BioRad iCycler iQ Detection System with Fast Green qPCR Master Mix—Fluor (Azura Genomics). PCR primers were purchased from Realtimeprimers (Elkins Park, Pa.). The ΔΔCt method [Livak K. J. and Schmittgen T. D. Analysis of relative gene expression data using real-time quantitative PCR and the 2(−Delta Delta C(T)) Method. Methods (San Diego, Calif.) 25(4):402-408, 2001]. was used to estimate fold changes with cycle threshold values normalized based upon the expression of glyceraldehyde-3-phosphate dehydrogenase (GAPDH).

[11] = DEFINE and CONFIRM phase III trials
[12] = DRF 462 mg BID, 96-week study (EVOLVE-MS-1)

COC(=O)/C=C/C(=O)OC [DMF, Dimethyl fumarate]
correlation of genome-wide expression responses with those observed in MS patients (Spearman r) [1]: 0.23
remaining parent compound ([2]; 0 minutes): 1 mM
remaining parent compound ([2]; 30 minutes): 0.166 mM
remaining parent compound ([2]; 60 minutes): 0.08 mM
remaining parent compound ([2]; 120 minutes): 0.014 mM
time by which essentially all is hydrolyzed ([2]; CES2, 37° C.): ≤ 60 min
fraction not hydrolyzed to MMF ([2]; within thirty minutes): about 17%
ICAM1 expression [3]: no similar activity
expression of genes linked to A1-polarization [3]: tended to increase expression
expression of genes linked to A2-polarization [3]: decreased expression
flushing, most reported adverse effect [4, 11]: 24-38%
specific gastrointestinal (GI) adverse effects (nausea, vomiting, diarrhea, upper abdominal pain), patients [4, 11]: 7 to 19%
patients who experienced adverse GI effects ([4]; after 1 year, in these trials): 36%
discontinuation of DMF due to GI side effects, patients ([4]; real-world settings): 5-19%
Disability reduction, % [5]: 38%
Gadolinium enhancement reduction, % [5]: 74-90%
Relapse rate reduction vs. placebo, % [5]: 44-53%
Side effects [5]: Flushing,
T2w lesion reduction, % [5]: 71-85%

COC(=O)/C=C/C(=O)OCCN1C(=O)CCC1=O [DRF, diroximel fumarate]
reduction of number of days with at least moderate GI symptoms ([6]; 5-week study, DRF 462 mg BID as compared to DMF 240 mg BID): 46%
discontinuation due to adverse GI effects, patients [6, 12]: 6.3%
patients who developed adverse GI effects [6, 12]: 30.9%
RDC-8439 and methanol generated as minor products [7]: < 10%
fraction metabolized to HES and MMF [7]: > 90%
remaining parent compound ([8]; 0 minutes): 1 mM
remaining parent compound ([8]; 15 minutes): .652 mM
remaining parent compound ([8]; 30 minutes): 0.482 mM
remaining parent compound ([8]; 60 minutes): 0.273 mM
remaining parent compound ([8]; 120 minutes): 0.08 mM
effect on TNFAIP3, NFKBIA and ICAM1 expression [9]: effectively no effect
OSGIN1 expression ([10]; FIG. 11(B)): suppression
expression of key MS-associated genes (IL-6, ICAM1, MALT1, TNFAIP3, IRF1, CXCL8) ([10]; FIGS. 11(C) through 11(H)): negligible effect

CCCCCCCCc1ccc(CCC(N)(CO)CO)cc1 [Fingolimod]
Side effects [5]: First dose

C/C(O)=C(\C#N)C(=O)Nc1ccc(C(F)(F)F)cc1 [Teriflunomide]
Side effects [5]: Gl, hair thinning,
